Measurements reported in patent publication US10407406B2, “2-halo-5-alkynyl-pyridyl nicotinic ligands” (Georgetown University, priority 2013, dated 2019).
Read-outs that look alike come from different tables or passages of the source.

Assays:
α3β4 nAChR = molecular target: T1, α3β4 nAChR (Rattus norvegicus, UniProt P04757+P12392); assay: [3H]-epibatidine competition binding, α3β4 nAChR in stably transfected HEK 293 cells; conditions: competition against [3H]-epibatidine
T1 construct: expressed in transfected cells; host or cells: HEK 293
Text: (§1) Pharmacological Properties. We measured the in vitro binding affinities of the ligands for defined receptor subtypes (α2β2, α2β4, α3β2, α3β4, α4β2, α4β4, α6β2, α6β4, and α7) expressed in stably transfected cell lines. […] Rat forebrain homogenates were included to allow comparison between the heterologous and native α4β2 and α7 nAChRs.
(§2) To determine selectivities of these compounds in binding assays among the three predominant nAChR subtypes, α3β4, α4β2, and α7, the ratios of Ki values (α3β4/α4β2 and α7/α4β2) were determined.
(§3) The cell lines expressing defined rat nAChR subtypes were established previously by stably transfecting HEK 293 cells with rat nAChR subunit genes. The cell line expressing human α4β2 nAChRs, YXα4β2H1, was established recently. These cell lines were maintained in minimum essential medium (MEM) supplemented with 10% fetal bovine serum, 100 units/mL penicillin G, […] streptomycin and selective antibiotics at 37° C. with 5% CO2 in a humidified incubator. Fetal bovine scrum was provided by Gemini Bio-Products (Woodland, Calif.). Tissue culture medium and antibiotics were obtained from Invitrogen Corporation (Carlsbad, Calif.), unless otherwise stated.
(§4) Briefly, cultured cells at >80% confluence were removed from their flasks (80 cm^2) with a disposable cell scraper and placed in 10 mL of 50 mM Tris⋅HCl buffer (pH 7.4, 4° C.). The cell suspension was centrifuged at 10,000×g for 5 min and the pellet was collected. The cell pellet was then homogenized in 10 mL buffer with a polytron homogenizer and centrifuged at 36,000 g for 10 min at 4° C. The membrane pellet was resuspended in fresh buffer, and aliquots of the membrane preparation were used for binding assays. […] Bound and free ligands were separated by vacuum filtration through Whatman GF/C filters treated with 0.5% polyethylenimine. The filter-retained radioactivity was measured by liquid scintillation counting. Specific binding was defined as the difference between total binding and nonspecific binding. Data from competition binding assays were analyzed using Prism 5 (GraphPad Software, San Diego, Calif.).

α7 nAChR = molecular target: T2, α7 nAChR (Rattus norvegicus, UniProt Q05941); assay: biochemical; type: binding; conditions: competition against [3H]-epibatidine
T2 construct: expressed in transfected cells; host or cells: HEK 293
Text: as §1, §2
as §3, with “Fetal bovine scrum was provided by Gemini Bio-Products (Woodland, Calif.). Tissue culture medium and antibiotics were obtained from Invitrogen Corporation (Carlsbad, Calif.), unless otherwise stated.” left out
Briefly, cultured cells at >80% confluence were removed from their flasks (80 cm^2) with a disposable cell scraper and placed in 10 mL of 50 mM Tris⋅HCl buffer (pH 7.4, 4° C.). […] The filter-retained radioactivity was measured by liquid scintillation counting. […] Data from competition binding assays were analyzed using Prism 5 (GraphPad Software, San Diego, Calif.).

human α4β2 nAChRs = molecular target: T3, human α4β2 nAChRs (Homo sapiens, UniProt P17787+P43681); assay: 86Rb+ efflux assay in cells expressing human α4β2 nAChRs; type: cell-based; conditions: for α4β2 Emax: efficacy compared to 100 μM (−)-nicotine; for IC50: desensitization, 10 min pre-treatment before 100 μM (−)-nicotine
T3 construct: expressed in transfected cells
Procedure: (§5) The functional properties of the ligands were determined by ^86Rb^| efflux assays in cells expressing α3β4 and α4β2 nAChR subtypes. The functional activity of each ligand was measured for its agonism, antagonism and desensitization ability. Agonist activity for each of the ligands was tested at eight different concentrations. […] The full concentration-effect curves generated potency (EC50) and efficacy (Emax) of each ligand. […] Each ligand was tested for antagonist activity at eight concentrations. The potency (IC50(0′)) of each ligand as an antagonist was derived from the full concentration-effect curves. […] Although ^86Rb^+ efflux assays are mainly used to determine functional properties, whole cell current measurements were also used to verify the key experiments.
(§6) In Vitro Effects on nAChR Function. […] Their agonist activities were assessed by measuring stimulated ^86Rb^+ efflux from stably transfected cells, either expressing human α4β2 nAChRs or rat α3β4 receptors.
as §3
(§7) Functional properties of compounds at nAChRs expressed in the transfected cells were measured using ^86Rb^+ efflux assays as described previously. In brief, cells expressing human α4β2 or rat α3β4 nAChRs were plated into 24-well plates coated with poly-D-lysine. The plated cells were grown at 37° C. for 18 to 24 hour to reach 85-95% confluence. The cells were then incubated in growth medium (0.5 mL/well) containing ^86Rb^+ (2 μCi/mL) for 4 hour at 37° C. The loading mixture was then aspirated, and the cells were washed four times with 1 mL buffer (15 mM HEPES, 140 mM NaCl, 2 mM KCl, 1 mM MgSO4, 1.8 mM CaCl2, 11 mM Glucose, pH 7.4). One mL of buffer with or without compounds to be tested was then added to each well. After incubation for 2 min, the assay buffer was collected for measurements of ^86R^+ released from the cells. Cells were then lysed by adding 1 mL of 100 mM NaOH to each well, and the lysate was collected for determination of the amount of ^86Rb^+ that was in the cells at the end of the efflux assay. Radioactivity of assay samples and lysates was measured by liquid scintillation counting. Total loading (cpm) was calculated as the sum of the assay sample and the lysate of each well. The amount of ^86Rb^+ efflux was expressed as a percentage of ^86Rb^| loaded. […] For obtaining EC50 and Emax values, stimulation curves were constructed in which 8 different concentrations of a ligand were included in the assay. […] EC50, Emax and IC50(10′) values were determined by nonlinear least-squares regression analyses (GraphPad, San Diego, Calif.).

α4β2 nAChR = molecular target: T4, α4β2 nAChR (Rattus norvegicus, UniProt P09483+P12390); assay: [3H]-epibatidine competition binding, α4β2 nAChR in stably transfected HEK 293 cells; conditions: competition against [3H]-epibatidine
T4 construct: expressed in transfected cells; host or cells: HEK 293
Text: as §1, §2, §3, §4

rat α3β4 nAChRs = molecular target: T5, rat α3β4 nAChRs (Rattus norvegicus, UniProt P04757+P12392); assay: 86Rb+ efflux assay in cells expressing rat α3β4 nAChRs; type: cell-based; conditions: for Emax: read-out: α3β4 Emax; for α3β4 Emax: efficacy compared to 100 μM (−)-nicotine
T5 construct: expressed in transfected cells; host or cells: HEK 293
Procedure: as §5, §6, §3, §7

[1] = agonist activity, stimulated 86Rb+ efflux, read-out: α3β4 EC50

FCCCCC#Cc1cnc(F)c(OC[C@@H]2CCN2)c1 [YL-2-203, (S)-3-(azetidin-2-ylmethoxy)-2-fluoro-5-(6-fluorohex-1-ynyl)pyridine di-trifluoroacetic acid]
Ki (α3β4 nAChR): 93 nM | Ki (α7 nAChR): 11 µM | EC50 (human α4β2 nAChRs): 35 nM | α4β2 Emax (human α4β2 nAChRs; di-trifluoroacetic acid): 33% | Emax (human α4β2 nAChRs; read-out: α4β2 Emax, efficacy compared to 100 μM (−)-nicotine): < 33% | Ki (α4β2 nAChR): 0.2 nM | EC50 (rat α3β4 nAChRs): 6.3 µM | Emax (rat α3β4 nAChRs): 26% | agonist activity at the α3β4 nAChRs (in words) (rat α3β4 nAChRs; stimulated 86Rb+ efflux): did not show detectable agonist activity

CCCCC#Cc1cnc(C)c(OC[C@@H]2CCN2)c1 [YL-1-127, (S)-3-(azetidin-2-ylmethoxy)-5-(hex-1-ynyl)-2-methylpyridine]
Ki (α3β4 nAChR): 575 nM | IC50 (human α4β2 nAChRs): 260 nM | Ki (α4β2 nAChR): 14 nM | EC50 (rat α3β4 nAChRs): 11 µM | Emax (rat α3β4 nAChRs): 10% | agonist activity at the α3β4 nAChRs (in words) (rat α3β4 nAChRs; stimulated 86Rb+ efflux): did not show detectable agonist activity

CN1CCCC1c1cccnc1 (single isomer, unassigned; (-)) [(−)-Nicotine]
agonist activity at the α4β2 nAChRs (in words) (human α4β2 nAChRs): full agonist activities | Emax (human α4β2 nAChRs; read-out: α4β2 Emax): 100%

c1cnc2cc3c(cc2n1)[C@@H]1CNC[C@H]3C1 [Varenicline]
Ki (α3β4 nAChR): 27 nM | Ki (α4β2 nAChR): 0.14 nM | EC50 (rat α3β4 nAChRs; [1]): 3.2 µM | α3β4 Emax (rat α3β4 nAChRs): 82%

OCCCCC#Cc1cncc(OC[C@@H]2CCN2)c1 [Sazetidine-A]
Ki (α3β4 nAChR): 6.5 nM | Ki (α7 nAChR): 0.67 µM | EC50 (human α4β2 nAChRs; agonist activity, stimulated 86Rb+ efflux, read-out: α4β2 EC50): 24 nM | IC50 (human α4β2 nAChRs): 11 nM | α4β2 Emax (human α4β2 nAChRs): 40% | Ki (α4β2 nAChR): 0.034 nM | EC50 (rat α3β4 nAChRs; [1]): 0.73 µM | IC50 (rat α3β4 nAChRs; desensitization, 10 min pre-treatment before 100 μM (−)-nicotine): 1300 nM | α3β4 Emax (rat α3β4 nAChRs): 96%
